Source: US20200197409A1, “HEPATITIS B VIRUS SURFACE ANTIGEN INHIBITOR” (FUJIAN COSUNTER PHARMACEUTICAL CO., LTD., priority 2017, published 2020)
pEC50: −log10 of the molar value. Read-outs that look alike come from different tables or passages of the source.

Assays:
HBV = assay: Anti-HBV activity on the hepatitis B virus mouse model (AAV-HBV); format: in vivo, C57BL/6 mice; conditions: for HBsAg content in the plasma of the mice: PO
Protocol: The AAV vector-mediated HBV infected mouse model is a fast and efficient HBV model. Using the high hepatotropism of the AAV vector, the recombinant adeno-associated type 8 virus carrying 1.3 copies of the HBV genome (rAAV8-1.3HBV) is injected into the tail vein of mice, which can efficiently introduce the carried 1.3 copy HBV genome into hepatocytes. Due to the characteristics of the AAV viral vector, the vector mediated by it can express for a long time. The AAV/HBV model can continuously replicate HBV DNA and express HBsAg and HBeAg in the liver of the mice.
The anti-HBV efficacy of the test compound in vivo was evaluated by determining the content of HBsAg in the serum of the mice after treatment with the test compound on AAV/HBV mouse mode.
C57BL/6 mice, 10% HP-f-CD as vehicle, reference compound TDF (Tenofovir), test compound, recombinant virus rAAVS-1.3HBV, main reagents of the experiment including QIAamp96 DNA kit and TaqMan® Universal PCR Master Mix, Hepatitis B Virus Surface Antigen Detection Kit, instruments including: centrifuge (Beckman Allegra X-15R), tissue grinder (QIAGEN-Tissue lyser II) and spectrophotometer (Thermo-NANODROP 1000).
a) All mice were orally administered on the 28th day after the virus injection, and the day was set as day 0. Submaxillary blood of all mice was collected for serum collection before administration. The mice were administered once a day for four weeks.
b) Submaxillary blood of all mice was collected for serum collection twice a week, the volume of the blood collected each time was approximately 100 μL.
c) On the 28th day, all mice were euthanized and the blood was collected from the heart for serum collection.
The content of HBsAg in the serum of the mice was determined by ELISA. The experimental procedure refers to the specification of HBsAg ELISA kit.
a) The anti-HBV activity of the test compound on AAV/HBV mice model was evaluated by determining the content of HBsAg in the plasma of the mice.

HBV-DNA = assay: HBV DNA content in HepG2.2.15 cells culture supernatant by real time-qPCR; format: cell-based; conditions: supernatant on the 8th day
Protocol: 2.1 Cell Line: HepG2.2.15 Cells
3.6 15 μL of the reaction mixture was added into each well of a 96-well PCR plate, followed by addition of 10 μL of sample DNA or HBV DNA standards into each well.
3.7 PCR reaction conditions: heating at 95° C. for 10 minutes, then denaturation at 95° C. for 15 seconds, extension at 60° C. for 1 minute, a total of 40 cycles.

[1] = Plasma protein binding rate, CD-1 mouse plasma; format: in vitro ADME; conditions: plasma of CD-1 mouse, dialysis 4 hours at 37° C.
Protocol: The protein binding rate of Embodiment 6 in the plasma of human, CD-1 mouse and SD rat was determined, 796 μL of blank plasma was taken from human, CD-1 mice and SD rats, and 4 μL of test compound working solution (400 μM) or warfarin working solution (400 μM) was added to achieve a final concentration of the test compound and the warfarin in plasma samples of 2 μM. The samples were mixed thoroughly. The final concentration of organic phase DMSO was 0.5%, 50 μL of the test compound and warfarin plasma sample were transferred into sample receiving plates (three parallels), and a relative volume of corresponding blank plasma or buffer was immediately added, ensuring that the final volume of each sample well was 100 μL, and the volume ratio of plasma to dialysis buffer was 1:1. 400 μL of stop solution was added to these samples, which was used as a T0 sample for the determination of recovery and stability. […] The protein binding rate and the recovery rate were calculated by the formulas: % Protein unbinding rate (%)=100*Drug concentration through the dialysis membrane/drug concentration not through the dialysate: Protein binding rate (%)=100-% protein unbinding rate: % Recovery=100*(Drug concentration through the dialysis membrane+Drug concentration not through the dialysate)/Total drug concentration before undialysis. Protein binding rate and recovery rate were calculated.

[2] = Single-dose pharmacokinetic study on rat; format: in vivo, SD rats
[3] = Microsomal metabolism stability, rat; format: in vitro ADME; conditions: rat liver microsomes 0.5 mg/mL, 1 μM, NADPH, 37° C.
Protocol: The microsomal metabolism stability of the test compound (Embodiment 6) in three species was determined. 1 μM test compound and microsomes (0.5 mg/mL) supplemented with NADPH regeneration system were incubated at 37° C. The positive controls were testosterone (3A4 substrate), propafenone (2D6 substrate) and diclofenac (2C9 substrate), respectively. The positive control and microsomes (0.5 mg/mL) supplemented with NADPH regeneration system were incubated at 37° C. Samples at different time points (0, 5, 10, 20, 30, and 60 minutes) were mixed directly with cold acetonitrile containing an internal standard to terminate the reaction. The compound and microsomes were incubated for 60 minutes without the NADPH regeneration system. One parallel was set at each time point (n=1). The samples were analyzed by LC/MS/MS. The concentration of the compound was indicated by the ratio of the peak area of the analyte to the peak area of the internal standard.

For COCCCOc1cc2c(cc1OC)-c1cc(=O)c(C(=O)O)cn1[C@H](C(C)(C)C)CO2 [Embodiment 6], the “effect on the content of HBsAg on the AAV/HBV mouse model (in words)” value (HBV; 3, 10, 30 mg/kg PO once a day for four weeks) was “significantly reduce”, the “HBsAg content in the plasma of the mice” value (HBV; day 4, 3 mg/kg) was 3.68 IU/mL and the “HBsAg content in the plasma of the mice” value (HBV; day 4, 10 mg/kg) was 3.56 IU/mL. For the same compound, the “HBsAg content in the plasma of the mice” value (HBV; day 4, 30 mg/kg) was 3.38 IU/mL, the “HBsAg content in the plasma of the mice” value (HBV; day 7, 3 mg/kg) was 3.70 IU/mL and the “HBsAg content in the plasma of the mice” value (HBV; day 7, 10 mg/kg) was 3.69 IU/mL. The “HBsAg content in the plasma of the mice” value (HBV; day 7, 30 mg/kg) was 3.44 IU/mL, the “HBsAg content in the plasma of the mice” value (HBV; day 11, 3 mg/kg) was 3.76 IU/mL and the “HBsAg content in the plasma of the mice” value (HBV; day 11, 10 mg/kg) was 3.92 IU/mL. For the same compound, the “HBsAg content in the plasma of the mice” value (HBV; day 11, 30 mg/kg) was 3.64 IU/mL, the “HBsAg content in the plasma of the mice” value (HBV; day 14, 3 mg/kg) was 3.70 IU/mL and the “HBsAg content in the plasma of the mice” value (HBV; day 14, 10 mg/kg) was 3.61 IU/mL. For the same compound, the “HBsAg content in the plasma of the mice” value (HBV; day 14, 30 mg/kg) was 3.40 IU/mL, the “HBsAg content in the plasma of the mice” value (HBV; day 18, 3 mg/kg) was 3.85 IU/mL and the “HBsAg content in the plasma of the mice” value (HBV; day 18, 10 mg/kg) was 3.90 IU/mL. For the same compound, the “HBsAg content in the plasma of the mice” value (HBV; day 18, 30 mg/kg) was 3.55 IU/mL, the “HBsAg content in the plasma of the mice” value (HBV; day 21, 3 mg/kg) was 3.78 IU/mL and the “HBsAg content in the plasma of the mice” value (HBV; day 21, 10 mg/kg) was 3.75 IU/mL. For the same compound, the “HBsAg content in the plasma of the mice” value (HBV; day 21, 30 mg/kg) was 3.46 IU/mL, the “HBsAg content in the plasma of the mice” value (HBV; day 25, 3 mg/kg) was 3.76 IU/mL and the “HBsAg content in the plasma of the mice” value (HBV; day 25, 10 mg/kg) was 3.83 IU/mL. The “HBsAg content in the plasma of the mice” value (HBV; day 25, 30 mg/kg) was 3.37 IU/mL, the “HBsAg content in the plasma of the mice” value (HBV; day 28, 3 mg/kg) was 3.96 IU/mL and the “HBsAg content in the plasma of the mice” value (HBV; day 28, 10 mg/kg) was 3.87 IU/mL. The “HBsAg content in the plasma of the mice” value (HBV; day 28, 30 mg/kg) was 3.53 IU/mL, the “HBsAg content in the plasma of the mice” value (HBV; day −1, 3 mg/kg) was 4.54 IU/mL and the “HBsAg content in the plasma of the mice” value (HBV; day −1, 10 mg/kg) was 4.51 IU/mL. The “HBsAg content in the plasma of the mice” value (HBV; day −1, 30 mg/kg) was 4.48 IU/mL, the “tolerance of the mice during the course of treatment” value (HBV; once a day for four weeks) was “good tolerance” and the “changes of the body weight of the mice” value (HBV; once a day for four weeks, FIG. 3) was “better than RG7834”. For the same compound, the pEC50 (HBV-DNA) was 8.59, the fraction unbound at 4 h, 2 μM [1] was 0.498 and the Apparent distribution volume ([2]; IV: 1 mg/kg PO: 2 mg/kg) was 1.72 L/kg. It also gave a Bioavailability ([2]; IV: 1 mg/kg PO: 2 mg/kg) of 71.1%, a Highest concentration ([2]; IV: 1 mg/kg PO: 2 mg/kg) of 659 nM and a half-life ([2]; male, SD, plasma, IV: 1 mg/kg PO: 2 mg/kg) of 1.98 h. It also gave a clearance ([2]; male, SD, plasma, IV: 1 mg/kg PO: 2 mg/kg, read-out: Clearance rate) of 1.69 L/h/kg, an AUC(0-t) ([2]; male, SD, plasma, IV: 1 mg/kg, read-out: AUC0-last (Intravenous injection)) of 1360 nM·h and an AUC(0-t) ([2]; male, SD, plasma, PO: 2 mg/kg, read-out: AUC0-last (Oral)) of 1830 nM·h. The “remaining ratio at T=60 min” value [3] was 113.0%.
